From patent publication US9150568B2, “Compositions and methods for modulating FXR” (NOVARTIS AG, priority 2010, dated 2015) come the findings set out here.

This assay addresses T1, human Farnesoid X Receptor (FXR) ligand binding domain (GST-FXR LBD) (Homo sapiens, UniProt Q96RI1).
T1 construct: purchased Invitrogen
T1 sequence (Q96RI1 193-472 isoform Q96RI1-2): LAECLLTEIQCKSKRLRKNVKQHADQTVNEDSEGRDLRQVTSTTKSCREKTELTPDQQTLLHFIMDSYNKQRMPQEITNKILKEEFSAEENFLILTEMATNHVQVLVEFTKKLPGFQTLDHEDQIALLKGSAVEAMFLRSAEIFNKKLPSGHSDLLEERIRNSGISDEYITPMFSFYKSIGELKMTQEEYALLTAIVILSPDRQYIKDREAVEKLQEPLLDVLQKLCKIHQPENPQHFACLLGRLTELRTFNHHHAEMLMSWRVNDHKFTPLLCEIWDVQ
As to the kind of experiment: Human GST-FXR LBD co-activator interaction assay (HTRF). To be noted: GST-FXR LBD / biotin-SRC-1 peptide FRET; response relative to GW4064; read-out: FXR Co-activator interaction assay (EC50). It is filed as biochemical. From the text:
Human GST-FXR LBD Co-activator interaction Assay. The FXR HTRF assay is a biochemical assay measuring the interaction between FXR and a coactivator protein (SRC1). The ligand-induced interaction with a coactivator protein is a critical step in transcriptional activation by FXR. Thus, this is an assay designed to measure FXR agonist activity of compounds.
The ligand-dependent interaction between GST-FXR LBD and a peptide derived from Steroid Receptor Coactivator-1 (SRC-1) was monitored by Fluorescence Resonance Energy Transfer (FRET). […] Test compounds (in DMSO solution) and detection reagents (anti-GST-Cryptate labeled antibody and Streptavidin-XL665 conjugate; CisBio) were added in assay buffer containing 50 mM KF.
A negative control (without Streptavidin-XL665) was run with each assay and represented the background fluorescence. A reference FXR agonist, GW4064, was included in each experiment as positive control. The efficacy of each test compound was compared to that of GW4064. At each concentration, the relative activity of the test compound was expressed as Response %=(Rsample−RDMSO)/(Rpositive−RDMSO), where Rsample is the HTRF response (expressed in Delta F %) for the test compound, Rpositive is the maximal response for GW4064 at saturating concentrations, and RDMSO is the response for DMSO control. The EC50 values were calculated using GraphPad Prism (GraphPad Software) using non-linear regression curve fit (log(agonist) vs. response—variable slope (four parameters)).
As for `O=C(O)c1cc(F)c2nc(N3C4CC[C@H]3C[C@H](OCc3c(C5CC5C(F)(F)F)noc3C3CC3)C4)sc2c1` (mixture of isomers) [Example 11], the EC50 was 30 nM. `O=C(O)c1cc(F)c2nc(N3C4CC[C@H]3CC(OCc3c(-c5ccccc5C(F)(F)F)noc3C3CC3)C4)sc2c1` (stereo in doubt) [Example 1-2B, 2-[3-({5-cyclopropyl-3-[2-(trifluoromethyl)phenyl]-1,2-oxazol-4-yl}methoxy)-8-azabicyclo[3.2.1]octan-8-yl]-4-fluoro-1,3-benzothiazole-6-carboxylic acid]: the EC50 amounted to 0.25 nM. With `O=C(O)c1ccc2nc(N3C4CC[C@H]3C[C@H](OCc3c(C5CCCCC5C(F)(F)F)noc3C3CC3)C4)sc2c1` (stereo in doubt) [Example 7B, 2-(3-((5-cyclopropyl-3-((trans)-2-(trifluoromethyl)cyclohexyl)isoxazol-4-yl)methoxy)-8-azabicyclo[3.2.1]octan-8-yl)benzo[d]thiazole-6-carboxylic acid], the EC50 came to 16 nM.

For `COC(=O)c1ccc(N2C3CC[C@H]2CC(OCc2c(-c4ccccc4OC(F)(F)F)noc2C2CC2)C3)c(F)c1` (stereo in doubt) [Example 23A, Methyl 4-(3-((5-cyclopropyl-3-(2-(trifluoromethoxy)phenyl)isoxazol-4-yl)methoxy)-8-azabicyclo[3.2.1]octan-8-yl)-3-fluorobenzoate], the EC50 was 6 nM.

With `O=C(O)c1ccc(N2C3CC[C@H]2CC(OCc2c(-c4ccccc4OC(F)(F)F)noc2C2CC2)C3)c(F)c1` (stereo in doubt) [Example 23B, 4-(3-((5-cyclopropyl-3-(2-(trifluoromethoxy)phenyl)isoxazol-4-yl)methoxy)-8-azabicyclo[3.2.1]octan-8-yl)-3-fluorobenzoic acid], the EC50 was found to be 4 nM.

In the case of `Fc1cc(-c2nn[nH]n2)ccc1N1C2CC[C@H]1CC(OCc1c(-c3ccccc3OC(F)F)noc1C1CC1)C2` (stereo in doubt) [Example 26B, 5-cyclopropyl-3-(2-(difluoromethoxy)phenyl)-4-(((8-(2-fluoro-4-(2H-tetrazol-5-yl)phenyl)-8-azabicyclo[3.2.1]octan-3-yl)oxy)methyl)isoxazole], the EC50 came to 0.3 nM. With `O=C(O)c1cn2nc(N3C4CC[C@H]3CC(OCc3c(-c5ccccc5OC(F)(F)F)noc3C3CC3)C4)ccc2n1` (stereo in doubt) [Example 31-1, 6-(3-((5-Cyclopropyl-3-(2-(trifluoromethoxy)phenyl)isoxazol-4-yl)methoxy)-8-azabicyclo[3.2.1]octan-8-yl)imidazo[1,2-b]pyridazine-2-carboxylic acid], the EC50 was found to be 12 nM.

On to `O=C(O)c1cnc2cc(N3C4CC[C@H]3CC(OCc3c(-c5ccccc5OC(F)(F)F)noc3C3CC3)C4)ccn12` (stereo in doubt) [Example 32-1, 7-(3-((5-cyclopropyl-3-(2-(trifluoromethoxy)phenyl)isoxazol-4-yl)methoxy)-8-azabicyclo[3.2.1]octan-8-yl)imidazo[1,2-a]pyridine-3-carboxylic acid], for which the EC50 is 3 nM. Turning to `COC(=O)c1cc(F)c2nc(N3C4CC[C@H]3CC(OCc3c(-c5ccccc5OC(F)(F)F)noc3C3CC3)C4)sc2c1` (stereo partly shown) [Example 1-1A, Methyl 2-(3-((5-cyclopropyl-3-(2-(trifluoromethoxy)phenyl)isoxazol-4-yl)methoxy)-8-azabicyclo[3.2.1]octan-8-yl)-4-fluorobenzo[d]thiazole-6-carboxylate], the EC50 came to 14 nM.

In the case of `COC(=O)c1cc(F)c2nc(N3C4CC[C@H]3CC(OCc3c(-c5ccccc5C(F)(F)F)noc3C3CC3)C4)sc2c1` (stereo partly shown) [Example 1-2A], the 50% effective concentration (EC50) worked out at 28 nM.

`COc1cc(C(=O)O)cc2sc(N3C4CC[C@H]3CC(OCc3c(-c5ccccc5OC(F)(F)F)noc3C3CC3)C4)nc12` (stereo partly shown) [Example 2-1B, 2-(3-((5-cyclopropyl-3-(2-(trifluoromethoxy)phenyl)isoxazol-4-yl)methoxy)-8-azabicyclo[3.2.1]octan-8-yl)-4-methoxybenzo[d]thiazole-6-carboxylic acid]: the EC50 was found to be 0.17 nM. In the case of `COc1cc(C(=O)O)cc2sc(N3C4CC[C@H]3CC(OCc3c(-c5ccccc5C(F)(F)F)noc3C3CC3)C4)nc12` (stereo partly shown) [Example 2-2B] it was 3 nM; in that of `CCOC(=O)c1ccc2nc(N3C4CC[C@H]3CC(OCc3c(-c5ccccc5OC(F)(F)F)noc3C3CC3)C4)sc2c1` (stereo partly shown) [Example 3A, ethyl 2-(3-((5-cyclopropyl-3-(2-(trifluoromethoxy)phenyl)isoxazol-4-yl)methoxy)-8-azabicyclo[3.2.1]octan-8-yl)benzo[d]thiazole-6-carboxylate], 20 nM; in that of `O=C(O)c1ccc2nc(N3C4CC[C@H]3CC(OCc3c(-c5ccccc5OC(F)(F)F)noc3C3CC3)C4)sc2c1` (stereo partly shown) [Example 3B], 0.74 nM. Regarding `CC(C)(O)c1ccc2nc(N3C4CC[C@H]3CC(OCc3c(-c5ccccc5OC(F)(F)F)noc3C3CC3)C4)sc2c1` (stereo partly shown) [Example 4, 2-(2-(3-((5-cyclopropyl-3-(2-(trifluoromethoxy)phenyl)isoxazol-4-yl)methoxy)-8-azabicyclo[3.2.1]octan-8-yl)benzo[d]thiazol-6-yl)propan-2-ol], the EC50 was 22 nM. For `NC(=O)c1cc(F)c2nc(N3C4CC[C@H]3C[C@H](OCc3c(-c5ccccc5OC(F)(F)F)noc3C3CC3)C4)sc2c1` [Example 5-1], the EC50 was found to be 7.6 nM.

On to `NC(=O)c1ccc(N2C3CC[C@H]2C[C@H](OCc2c(-c4ccccc4OC(F)(F)F)noc2C2CC2)C3)nc1` [Example 5-2], for which the EC50 amounted to 3.8 nM. In the case of `Cc1cc(C(N)=O)nc(N2C3CC[C@H]2C[C@H](OCc2c(-c4ccccc4OC(F)F)noc2C2CC2)C3)n1` [Example 5-3] it was 20 nM; in that of `CCOC(=O)c1ccc2nc(N3C4CC[C@H]3C[C@H](OCc3c(-c5ccccc5C(F)(F)F)noc3C3CC3)C4)sc2c1` [Example 6-1A], 63 nM. `O=C(O)c1ccc2nc(N3C4CC[C@H]3C[C@H](OCc3c(-c5ccccc5C(F)(F)F)noc3C3CC3)C4)sc2c1` [Example 6-1B]: the EC50 turned out to be 0.67 nM. For the molecule `CCOC(=O)c1ccc2nc(N3C4CC[C@H]3C[C@H](OCc3c(-c5ccccc5OC(F)F)noc3C3CC3)C4)sc2c1` [Example 6-2A], the EC50 came to 51 nM. For `O=C(O)c1ccc2nc(N3C4CC[C@H]3C[C@H](OCc3c(-c5ccccc5OC(F)F)noc3C3CC3)C4)sc2c1` [Example 6-2B], the EC50 is 0.36 nM.

`COC(=O)c1cc(F)c2nc(N3C4CC[C@H]3C[C@H](OCc3c(-c5ccccc5OC(F)F)noc3C3CC3)C4)sc2c1` [Example 6-3A]: the EC50 worked out at 12 nM. As to `O=C(O)c1cc(F)c2nc(N3C4CC[C@H]3C[C@H](OCc3c(-c5ccccc5OC(F)F)noc3C3CC3)C4)sc2c1` [Example 6-3B], the EC50 worked out at 0.27 nM. As for `COc1cc(C(=O)O)cc2sc(N3C4CC[C@H]3C[C@H](OCc3c(-c5ccccc5OC(F)F)noc3C3CC3)C4)nc12` [Example 6-4], the figure is 0.18 nM; as for `CCOC(=O)c1ccc2nc(N3C4CC[C@H]3C[C@H](OCc3c(-c5c(F)cccc5F)noc3C3CC3)C4)sc2c1` [Example 6-5A], 3.8 nM; as for `O=C(O)c1ccc2nc(N3C4CC[C@H]3C[C@H](OCc3c(-c5c(F)cccc5F)noc3C3CC3)C4)sc2c1` [Example 6-5B], 5.6 nM. Take `COC(=O)c1cc(OC)c2nc(N3C4CC[C@H]3C[C@H](OCc3c(-c5c(F)cccc5F)noc3C3CC3)C4)sc2c1` [Example 6-6A]: the EC50 worked out at 14 nM.
